Legend:
[1] = target: Protein-tyrosine kinase 2-beta (Homo sapiens) (UniProt Q14289); test: Selectivity interaction (KinomeScan (DiscoverX)) EUB0000695a PTK2B; conditions: at 100 nM
[2] = target: T1, Ephrin type-A receptor 6 (Homo sapiens) (UniProt Q9UF33); conditions: at 10 µM
T1 sequence (whole entry): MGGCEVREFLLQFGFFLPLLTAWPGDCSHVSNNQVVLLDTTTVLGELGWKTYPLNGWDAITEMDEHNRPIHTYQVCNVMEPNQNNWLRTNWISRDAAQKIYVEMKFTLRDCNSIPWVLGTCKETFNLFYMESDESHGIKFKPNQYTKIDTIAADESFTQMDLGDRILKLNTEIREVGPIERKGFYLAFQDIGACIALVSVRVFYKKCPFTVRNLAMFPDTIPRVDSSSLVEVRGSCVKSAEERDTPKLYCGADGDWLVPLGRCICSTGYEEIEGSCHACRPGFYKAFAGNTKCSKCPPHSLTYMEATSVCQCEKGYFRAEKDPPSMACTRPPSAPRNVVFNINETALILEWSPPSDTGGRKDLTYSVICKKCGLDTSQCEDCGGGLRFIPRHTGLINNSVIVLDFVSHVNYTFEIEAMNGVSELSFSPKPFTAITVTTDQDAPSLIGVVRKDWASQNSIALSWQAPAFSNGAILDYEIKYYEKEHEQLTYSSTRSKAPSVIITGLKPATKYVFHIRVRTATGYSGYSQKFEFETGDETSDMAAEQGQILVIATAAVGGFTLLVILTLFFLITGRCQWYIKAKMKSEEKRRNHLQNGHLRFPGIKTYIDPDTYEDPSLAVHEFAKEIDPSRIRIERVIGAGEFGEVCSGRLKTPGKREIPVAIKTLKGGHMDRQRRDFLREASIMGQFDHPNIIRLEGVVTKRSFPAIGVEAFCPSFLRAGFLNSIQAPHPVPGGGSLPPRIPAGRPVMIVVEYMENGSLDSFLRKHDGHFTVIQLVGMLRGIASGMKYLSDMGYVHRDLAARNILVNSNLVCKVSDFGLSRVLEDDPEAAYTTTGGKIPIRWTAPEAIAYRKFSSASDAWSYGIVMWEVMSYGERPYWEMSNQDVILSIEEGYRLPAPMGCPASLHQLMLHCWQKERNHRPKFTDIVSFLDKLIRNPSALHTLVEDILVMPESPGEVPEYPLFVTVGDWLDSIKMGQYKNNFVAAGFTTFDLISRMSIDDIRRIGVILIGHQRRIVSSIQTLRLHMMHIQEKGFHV

[3] = target: Sodium- and chloride-dependent GABA transporter 1 (Homo sapiens) (UniProt P30531); test: Selectivity interaction (Eurofins CEREP Diversity Profile (receptors and ion channels)) EUB0000279b SLC6A1; conditions: at 10 µM
Chain of Sodium- and chloride-dependent GABA transporter 1 (Homo sapiens) (P30531 whole entry, looked up): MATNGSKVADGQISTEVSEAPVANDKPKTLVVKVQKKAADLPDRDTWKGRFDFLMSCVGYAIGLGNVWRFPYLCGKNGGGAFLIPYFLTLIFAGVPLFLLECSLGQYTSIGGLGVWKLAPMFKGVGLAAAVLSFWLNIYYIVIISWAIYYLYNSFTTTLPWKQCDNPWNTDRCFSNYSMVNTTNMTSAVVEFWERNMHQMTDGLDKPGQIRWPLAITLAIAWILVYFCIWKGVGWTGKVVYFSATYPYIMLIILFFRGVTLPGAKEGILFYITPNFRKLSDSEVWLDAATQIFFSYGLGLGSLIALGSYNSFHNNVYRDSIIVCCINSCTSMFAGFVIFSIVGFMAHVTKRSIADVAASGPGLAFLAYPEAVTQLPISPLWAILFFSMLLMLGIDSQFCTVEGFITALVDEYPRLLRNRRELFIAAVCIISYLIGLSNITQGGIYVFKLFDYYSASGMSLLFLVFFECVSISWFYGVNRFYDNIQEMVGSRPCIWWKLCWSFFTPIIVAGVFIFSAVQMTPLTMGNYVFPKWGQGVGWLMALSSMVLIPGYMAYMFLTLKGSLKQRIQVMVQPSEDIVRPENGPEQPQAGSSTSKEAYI

[4] = target: Tyrosine-protein kinase Fer (Homo sapiens) (UniProt P16591); test: Selectivity interaction (KinomeScan (DiscoverX)) EUB0001619a FER; conditions: at 1 µM
[5] = target: Serine/threonine-protein kinase pim-2 (Homo sapiens, UniProt Q9P1W9); test: Selectivity interaction (KinomeScan (DiscoverX)) EUB0001619a PIM2; conditions: at 1 µM
[6] = system: Phosphatidylinositol 4,5-bisphosphate 3-kinase catalytic subunit alpha isoform (Homo sapiens), P42336 [M1043I]; test: (§1) Selectivity interaction (KinomeScan (DiscoverX)) EUB0001619a PIK3CA; conditions: at 1 µM
[7] = system: Phosphatidylinositol 4,5-bisphosphate 3-kinase catalytic subunit alpha isoform (Homo sapiens), P42336 [E545K]; test: as §1; conditions: at 1 µM
[8] = system: Phosphatidylinositol 4,5-bisphosphate 3-kinase catalytic subunit alpha isoform (Homo sapiens), P42336 [C420R]; test: as §1; conditions: at 1 µM
[9] = system: Phosphatidylinositol 4,5-bisphosphate 3-kinase catalytic subunit alpha isoform (Homo sapiens), P42336 [Q546K]; test: as §1; conditions: at 1 µM
[10] = system: Phosphatidylinositol 4,5-bisphosphate 3-kinase catalytic subunit alpha isoform (Homo sapiens), P42336 [E545A]; test: as §1; conditions: at 1 µM
Chain of Phosphatidylinositol 4,5-bisphosphate 3-kinase catalytic subunit alpha isoform (Homo sapiens), P42336 [E545A] (P42336 whole entry E545A, canonical isoform): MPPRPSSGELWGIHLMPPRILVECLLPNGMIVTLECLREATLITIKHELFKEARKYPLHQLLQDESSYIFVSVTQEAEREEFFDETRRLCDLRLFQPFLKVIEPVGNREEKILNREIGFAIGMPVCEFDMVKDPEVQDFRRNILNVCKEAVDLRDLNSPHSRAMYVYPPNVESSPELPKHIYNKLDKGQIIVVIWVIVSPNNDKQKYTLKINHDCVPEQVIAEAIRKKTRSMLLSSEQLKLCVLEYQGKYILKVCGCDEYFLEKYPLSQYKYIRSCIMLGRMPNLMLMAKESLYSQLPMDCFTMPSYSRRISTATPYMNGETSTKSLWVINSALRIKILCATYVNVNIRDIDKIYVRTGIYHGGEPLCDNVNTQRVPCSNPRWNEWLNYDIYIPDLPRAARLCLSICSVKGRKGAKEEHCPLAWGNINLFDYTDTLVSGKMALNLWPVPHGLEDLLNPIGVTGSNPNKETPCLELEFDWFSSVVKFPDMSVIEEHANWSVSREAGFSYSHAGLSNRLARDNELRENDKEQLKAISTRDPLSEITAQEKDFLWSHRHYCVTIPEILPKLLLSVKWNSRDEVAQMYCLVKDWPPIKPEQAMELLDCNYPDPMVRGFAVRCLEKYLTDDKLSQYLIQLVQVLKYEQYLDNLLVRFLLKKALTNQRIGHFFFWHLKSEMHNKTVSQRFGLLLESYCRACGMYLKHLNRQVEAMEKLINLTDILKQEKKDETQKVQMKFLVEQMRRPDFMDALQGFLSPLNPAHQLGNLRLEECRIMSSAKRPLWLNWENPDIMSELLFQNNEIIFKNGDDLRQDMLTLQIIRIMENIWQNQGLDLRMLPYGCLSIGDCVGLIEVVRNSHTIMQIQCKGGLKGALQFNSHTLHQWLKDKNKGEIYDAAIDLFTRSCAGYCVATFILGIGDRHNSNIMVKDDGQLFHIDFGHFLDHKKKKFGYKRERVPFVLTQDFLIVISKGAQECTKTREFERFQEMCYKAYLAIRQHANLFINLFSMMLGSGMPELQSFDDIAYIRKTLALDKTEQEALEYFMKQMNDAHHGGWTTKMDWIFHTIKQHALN

[11] = system: Phosphatidylinositol 4,5-bisphosphate 3-kinase catalytic subunit alpha isoform (Homo sapiens), P42336 [I800L]; test: as §1; conditions: at 1 µM
[12] = system: Phosphatidylinositol 4,5-bisphosphate 3-kinase catalytic subunit alpha isoform (Homo sapiens), P42336 [H1047Y]; test: as §1; conditions: at 1 µM
[13] = system: Phosphatidylinositol 4,5-bisphosphate 3-kinase catalytic subunit alpha isoform (Homo sapiens), P42336 [H1047L]; test: as §1; conditions: at 1 µM
[14] = system: Phosphatidylinositol 4,5-bisphosphate 3-kinase catalytic subunit alpha isoform (Homo sapiens), P42336 [E542K]; test: as §1; conditions: at 1 µM
Chain of Phosphatidylinositol 4,5-bisphosphate 3-kinase catalytic subunit alpha isoform (Homo sapiens), P42336 [E542K] (P42336 whole entry E542K, canonical isoform): as the sequence (P42336 whole entry E545A, canonical isoform) above, with E542K, A545E counted along it

[15] = target: Phosphatidylinositol 4,5-bisphosphate 3-kinase catalytic subunit alpha isoform (Homo sapiens) (UniProt P42336); test: as §1; conditions: at 1 µM
[16] = target: Receptor tyrosine-protein kinase erbB-4 (Homo sapiens, UniProt Q15303); test: Selectivity interaction (KinomeScan (DiscoverX)) EUB0000607a ERBB4; conditions: at 10 µM
Chain of Receptor tyrosine-protein kinase erbB-4 (Q15303 whole entry): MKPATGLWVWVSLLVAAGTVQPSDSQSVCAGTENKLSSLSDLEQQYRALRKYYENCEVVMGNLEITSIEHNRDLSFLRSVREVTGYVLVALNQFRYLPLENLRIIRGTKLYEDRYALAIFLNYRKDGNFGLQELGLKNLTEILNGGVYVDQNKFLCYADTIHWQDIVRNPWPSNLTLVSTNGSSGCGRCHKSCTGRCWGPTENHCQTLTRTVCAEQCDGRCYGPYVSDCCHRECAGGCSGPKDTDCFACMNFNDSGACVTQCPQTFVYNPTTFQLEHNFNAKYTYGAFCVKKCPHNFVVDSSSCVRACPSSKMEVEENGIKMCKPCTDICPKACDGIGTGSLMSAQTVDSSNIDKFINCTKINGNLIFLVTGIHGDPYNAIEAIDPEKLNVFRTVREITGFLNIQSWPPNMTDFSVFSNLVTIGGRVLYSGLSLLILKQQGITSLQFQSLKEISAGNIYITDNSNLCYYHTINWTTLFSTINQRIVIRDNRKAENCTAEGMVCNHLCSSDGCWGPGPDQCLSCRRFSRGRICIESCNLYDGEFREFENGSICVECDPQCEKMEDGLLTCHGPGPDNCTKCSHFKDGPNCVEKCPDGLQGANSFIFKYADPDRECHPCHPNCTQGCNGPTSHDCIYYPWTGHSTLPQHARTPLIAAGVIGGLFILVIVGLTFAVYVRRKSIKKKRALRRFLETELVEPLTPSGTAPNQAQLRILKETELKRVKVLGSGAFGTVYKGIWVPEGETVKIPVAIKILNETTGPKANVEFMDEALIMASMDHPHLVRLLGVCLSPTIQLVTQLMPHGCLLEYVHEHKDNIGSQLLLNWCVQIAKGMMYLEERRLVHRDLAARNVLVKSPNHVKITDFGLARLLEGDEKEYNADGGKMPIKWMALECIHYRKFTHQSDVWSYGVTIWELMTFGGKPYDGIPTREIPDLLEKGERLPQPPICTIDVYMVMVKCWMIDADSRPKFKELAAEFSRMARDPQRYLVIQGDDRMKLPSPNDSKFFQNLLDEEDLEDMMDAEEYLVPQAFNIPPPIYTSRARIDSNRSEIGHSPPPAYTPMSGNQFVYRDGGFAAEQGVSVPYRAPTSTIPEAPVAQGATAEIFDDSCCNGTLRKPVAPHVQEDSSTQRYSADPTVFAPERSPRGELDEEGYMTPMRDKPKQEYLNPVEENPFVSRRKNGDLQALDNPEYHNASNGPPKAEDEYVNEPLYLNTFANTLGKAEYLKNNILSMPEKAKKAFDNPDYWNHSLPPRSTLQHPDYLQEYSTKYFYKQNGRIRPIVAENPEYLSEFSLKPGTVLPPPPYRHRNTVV

[17] = target: Serine/threonine-protein kinase/endoribonuclease IRE1 (Homo sapiens) (UniProt O75460); test: Selectivity interaction (ActivX KiNativ screen (kinase selectivity in THP-1 cell lysates)) EUB0000639a ERN1; assay type: subcellular; conditions: lysate
Chain of Serine/threonine-protein kinase/endoribonuclease IRE1 (Homo sapiens) (O75460 19-977 limits assumed): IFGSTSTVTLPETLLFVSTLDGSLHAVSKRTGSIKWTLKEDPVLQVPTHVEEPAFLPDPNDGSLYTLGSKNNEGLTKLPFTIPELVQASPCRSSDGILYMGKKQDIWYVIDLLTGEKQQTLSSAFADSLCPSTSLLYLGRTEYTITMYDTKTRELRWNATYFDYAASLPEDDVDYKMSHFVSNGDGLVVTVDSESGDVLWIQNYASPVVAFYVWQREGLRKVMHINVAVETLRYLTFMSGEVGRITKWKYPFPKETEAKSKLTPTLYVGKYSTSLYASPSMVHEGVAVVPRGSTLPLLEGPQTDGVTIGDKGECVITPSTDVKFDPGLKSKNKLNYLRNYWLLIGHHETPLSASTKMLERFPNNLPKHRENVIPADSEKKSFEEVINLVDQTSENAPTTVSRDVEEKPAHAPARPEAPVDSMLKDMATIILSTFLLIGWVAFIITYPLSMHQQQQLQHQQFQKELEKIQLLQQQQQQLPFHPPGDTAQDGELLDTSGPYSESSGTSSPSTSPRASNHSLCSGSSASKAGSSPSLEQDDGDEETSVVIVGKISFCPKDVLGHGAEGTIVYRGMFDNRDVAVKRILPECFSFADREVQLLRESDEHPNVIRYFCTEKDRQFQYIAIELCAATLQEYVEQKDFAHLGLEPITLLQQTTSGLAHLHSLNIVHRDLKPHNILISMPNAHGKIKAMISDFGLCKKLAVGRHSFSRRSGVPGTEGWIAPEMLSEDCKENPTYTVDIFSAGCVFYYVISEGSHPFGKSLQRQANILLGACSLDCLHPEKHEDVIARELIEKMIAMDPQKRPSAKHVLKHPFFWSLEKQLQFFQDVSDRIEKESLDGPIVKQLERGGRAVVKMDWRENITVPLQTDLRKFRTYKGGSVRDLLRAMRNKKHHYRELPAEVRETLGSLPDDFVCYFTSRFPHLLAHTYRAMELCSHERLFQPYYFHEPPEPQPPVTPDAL

[18] = target: T2, Mitogen-activated protein kinase kinase kinase 3 (Homo sapiens) (UniProt Q99759); test: Selectivity interaction (KinomeScan (DiscoverX)) EUB0000092b MAP3K3; conditions: at 10 µM
T2 sequence (whole entry): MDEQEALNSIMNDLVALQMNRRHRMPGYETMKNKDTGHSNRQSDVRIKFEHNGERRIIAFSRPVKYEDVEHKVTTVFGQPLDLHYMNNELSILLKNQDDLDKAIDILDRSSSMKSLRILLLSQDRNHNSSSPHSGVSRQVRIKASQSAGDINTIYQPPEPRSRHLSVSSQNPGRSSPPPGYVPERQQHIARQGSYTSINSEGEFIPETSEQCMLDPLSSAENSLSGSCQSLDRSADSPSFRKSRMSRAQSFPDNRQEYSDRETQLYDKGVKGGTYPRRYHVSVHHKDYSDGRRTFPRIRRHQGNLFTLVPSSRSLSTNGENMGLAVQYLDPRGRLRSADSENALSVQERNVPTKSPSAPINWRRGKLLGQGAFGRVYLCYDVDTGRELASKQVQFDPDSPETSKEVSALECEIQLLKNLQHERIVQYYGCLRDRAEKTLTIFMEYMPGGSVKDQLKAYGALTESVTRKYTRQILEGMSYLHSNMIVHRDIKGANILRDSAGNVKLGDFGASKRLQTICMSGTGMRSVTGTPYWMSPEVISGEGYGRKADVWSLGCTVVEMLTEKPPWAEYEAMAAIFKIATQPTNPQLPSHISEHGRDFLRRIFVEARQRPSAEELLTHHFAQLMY

Structure (SMILES): Cc1cc(F)c(C(=O)Nc2cccc(-c3nncn3C(C)C)n2)cc1-n1cnc(C2CC2)c1
- % of control [1]: 100%

Structure (SMILES): Cc1cc([C@@H](C)Nc2ccccc2C(=O)O)c2nc(N3CCOCC3)cc(=O)n2c1 [AZD-6482]
- % of control [2]: 100%

Structure (SMILES): CC(=O)c1cc(-c2ccccc2OCC2CC2)c2ncccn12
- % of control [3]: 107%

Structure (SMILES): N#Cc1cccc(-c2c[nH]c3ncnc(N4CCOCC4)c23)c1
- % of control [4]: 84%
- % of control [5]: 100%
- % of control [6]: 100%
- % of control [7]: 96%
- % of control [8]: 95%
- % of control [9]: 97%
- % of control [10]: 100%
- % of control [11]: 88%
- % of control [12]: 76%
- % of control [13]: 90%
- % of control [14]: 90%
- % of control [15]: 100%

Structure (SMILES): CNC(=O)Nc1ccc(-c2nc(N3CC4CCC(C3)O4)c3cnn(C4CCC5(CC4)OCCO5)c3n2)cc1
- % of control [16]: 100%

Structure (SMILES): CC[C@@H]1[C@H](F)C(=O)N[C@@H]1COc1nccc2cc(C(N)=O)c(OC)cc12 [ZIMLOVISERTIB]
- % of inhibition ([17]; at 0.01 µM): -5.9%
- % of inhibition ([17]; at 0.04 µM): -16.2%
- % of inhibition ([17]; at 0.2 µM): -1.2%
- % of inhibition ([17]; at 1 µM): -2.9%
- % of inhibition ([17]; at 5 µM): -24%

Structure (SMILES): CCC(=O)N1CCN(c2ccc(-n3c(=O)ccc4cnc5ccc(-c6cnc7ccccc7c6)cc5c43)cc2C(F)(F)F)CC1
- % of control [18]: 75%

— ChEMBL document CHEMBL5465560, “Selectivity Literature for EUbOPEN Chemogenomic Library” (2024)
